Source: ChEMBL document CHEMBL1201862, “PubChem BioAssay data set” (2004)
The source made the active and inactive calls.

Tests used:
[1] = molecular target: T1, Interleukin-8 (Homo sapiens, UniProt P10145); assay: Dose Response confirmation of uHTS small molecule hits for cystic fibrosis induced NFkb Inhibitors in a TNFa-induced IL8 counterscreen.; format: functional; conditions: read-out: IC50_Mean
[2] = molecular target: T1, Interleukin-8; assay: Dose Response confirmation of uHTS small molecule hits for cystic fibrosis induced NFkb Inhibitors in a PAF-induced IL8 counterscreen.; format: functional; conditions: read-out: IC50_Mean
[3] = molecular target: Large T antigen (Simian virus 40, UniProt P03070); format: functional, Betapolyomavirus macacae;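 note: Confirmatory-stage PubChem screen for compounds that inhibit SV40 T antigen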
[4] = molecular target: 26S proteasome non-ATPase regulatory subunit 14 (Homo sapiens, UniProt O00487); assay: inhibition of proteasome subunit RPN11 – biochemical, fluorescence polarization, uHTS hits, confirmation (AID 602368); format: functional
Chain of 26S proteasome non-ATPase regulatory subunit 14 (O00487 whole entry): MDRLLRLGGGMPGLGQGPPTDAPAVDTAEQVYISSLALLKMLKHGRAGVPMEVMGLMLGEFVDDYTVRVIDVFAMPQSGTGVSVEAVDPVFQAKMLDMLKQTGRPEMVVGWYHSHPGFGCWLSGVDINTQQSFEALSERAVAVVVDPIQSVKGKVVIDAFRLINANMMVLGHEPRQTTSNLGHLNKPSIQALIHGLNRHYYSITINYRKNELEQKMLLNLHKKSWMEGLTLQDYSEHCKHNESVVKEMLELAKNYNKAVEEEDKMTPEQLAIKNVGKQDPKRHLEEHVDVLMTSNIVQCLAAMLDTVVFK

[5] = molecular target: 72 kDa type IV collagenase (Homo sapiens, UniProt P08253); assay: Dose Response validation of uHTS RPN11 inhibitor hits using a MMP-2 Fluorescence assay.; format: functional
Chain of 72 kDa type IV collagenase (P08253 whole entry): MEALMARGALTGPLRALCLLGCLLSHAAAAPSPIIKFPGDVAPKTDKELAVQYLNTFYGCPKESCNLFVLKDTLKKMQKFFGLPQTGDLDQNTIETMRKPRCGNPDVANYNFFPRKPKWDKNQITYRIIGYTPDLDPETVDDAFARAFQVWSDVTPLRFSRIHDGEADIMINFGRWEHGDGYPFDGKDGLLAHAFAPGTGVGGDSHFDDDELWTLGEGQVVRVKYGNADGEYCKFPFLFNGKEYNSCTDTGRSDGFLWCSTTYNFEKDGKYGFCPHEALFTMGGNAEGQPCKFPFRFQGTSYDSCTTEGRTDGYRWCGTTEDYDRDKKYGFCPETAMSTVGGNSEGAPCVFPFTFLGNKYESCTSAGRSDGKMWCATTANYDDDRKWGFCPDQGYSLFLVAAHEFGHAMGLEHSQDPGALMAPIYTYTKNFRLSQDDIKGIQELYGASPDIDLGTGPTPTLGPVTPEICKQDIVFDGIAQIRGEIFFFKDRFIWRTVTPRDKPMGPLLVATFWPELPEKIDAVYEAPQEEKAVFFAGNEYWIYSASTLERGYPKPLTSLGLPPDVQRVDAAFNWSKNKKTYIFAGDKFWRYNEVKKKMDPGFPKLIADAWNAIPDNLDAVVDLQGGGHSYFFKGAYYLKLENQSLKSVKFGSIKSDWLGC

[6] = molecular target: Prothrombin (Bos taurus, UniProt P00735); assay: thrombin protease inhibitors – biochemical, fluorescence polarization, uHTS hits, dose response (AID 602369); format: functional
[7] = system: Streptococcus sp. 'group A'; assay: Streptococcus pyogenes SK(-)GAS viability under kanamycin – luminescence, BacTiterGlo, confirmation, counter-screen for streptokinase expression inhibitor project, dose response (AID 1900); format: functional, organism-based
[8] = system: Streptococcus; assay: GAS UMAA2166 growth inhibition – luminescence, BacTiterGlo, counter-screen for streptokinase expression inhibitor project, dose response (AID 1915); format: functional, organism-based;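 note: potency for reduction of bacterial viability or growth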
[9] = system: Escherichia coli; assay: microbe, parasite or virus in culture
[10] = system: Escherichia coli; assay: microbe, parasite or virus in culture; remark: listed apart in the source
[11] = molecular target: T2, Zinc finger protein mex-5 (Caenorhabditis elegans, UniProt Q9XUB2); assay: potency of MEX-5 RNA-binding blockers – biochemical, C. elegans, fluorescence polarization, dose response (AID 1960)
T2 sequence (Q9XUB2 whole entry): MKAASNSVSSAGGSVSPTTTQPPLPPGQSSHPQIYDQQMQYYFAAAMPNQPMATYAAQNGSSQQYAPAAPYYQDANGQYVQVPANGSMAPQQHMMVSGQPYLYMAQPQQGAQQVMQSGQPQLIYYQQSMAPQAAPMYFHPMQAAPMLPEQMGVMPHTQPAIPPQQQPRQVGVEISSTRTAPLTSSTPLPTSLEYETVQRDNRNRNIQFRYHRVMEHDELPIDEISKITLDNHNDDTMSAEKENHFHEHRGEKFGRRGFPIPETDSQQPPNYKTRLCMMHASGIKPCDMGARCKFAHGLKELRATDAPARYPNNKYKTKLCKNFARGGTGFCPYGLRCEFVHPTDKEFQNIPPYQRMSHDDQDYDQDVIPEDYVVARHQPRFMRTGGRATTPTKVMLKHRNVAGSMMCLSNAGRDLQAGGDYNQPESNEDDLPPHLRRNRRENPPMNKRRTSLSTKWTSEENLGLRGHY

[12] = Luminescence Cell-Based Dose Response to Identify Activators of Luciferase Translation or Activity in H4-C Neuroglioblastoma Cells. [Related pubchem assays: 1829 (Project Summary), 1814 (Primary HTS)]; format: functional
[13] = Luminescence Cell-Based Dose Confirmation to Identify Activators of 5'UTR Stem-Loop Driven Alpha-Synuclein mRNA Translation in H4 Neuroglioblastoma Cells. [Related pubchem assays: 1829 (Project Summary), 1814 (Primary HTS)]; format: functional
[14] = system: H4; assay: Luminescence Cell-Based Dose Response HTS to Identify Activators of 5'UTR Stem-Loop Driven Prion Protein mRNA Translation in H4 Neuroglioblastoma Cells. [Related pubchem assays: 1829 (Project Summary), 1814 (Primary HTS)]; format: functional; conditions: Homo sapiens
[15] = Luminescence Cell-Based Dose Response to Identify Activators of 5'UTR Stem-Loop Driven Prion Protein mRNA Translation in H4-C Neuroglioblastoma Cells. [Related pubchem assays: 1829 (Project Summary), 1814 (Primary HTS)]; format: functional
[16] = molecular target: Nuclear receptor subfamily 0 group B member 1 (Homo sapiens, UniProt P51843); assay: Luminescence-based cell-based high throughput dose response assay for inhibitors of the orphan nuclear receptor subfamily 0, group B, member 1 (DAX1; NR0B1). [Related pubchem assays (depositor defined):AID504766, AID504790]; format: functional
Chain of Nuclear receptor subfamily 0 group B member 1 (P51843 whole entry): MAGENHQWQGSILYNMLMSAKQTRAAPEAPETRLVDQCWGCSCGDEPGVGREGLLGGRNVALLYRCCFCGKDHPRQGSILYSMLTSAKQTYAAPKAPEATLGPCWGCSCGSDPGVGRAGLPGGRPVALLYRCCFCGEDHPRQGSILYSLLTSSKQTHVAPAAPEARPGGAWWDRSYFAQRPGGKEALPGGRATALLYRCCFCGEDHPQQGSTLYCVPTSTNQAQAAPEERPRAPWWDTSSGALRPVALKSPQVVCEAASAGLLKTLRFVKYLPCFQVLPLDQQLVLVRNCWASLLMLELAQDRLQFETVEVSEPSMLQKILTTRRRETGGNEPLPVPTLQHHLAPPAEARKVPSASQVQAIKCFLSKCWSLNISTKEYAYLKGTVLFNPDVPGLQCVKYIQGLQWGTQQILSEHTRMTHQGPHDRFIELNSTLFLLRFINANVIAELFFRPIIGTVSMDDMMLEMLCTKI

[17] = system: HEK293; assay: cells; format: functional, cell-based; conditions: Homo sapiens
[18] = molecular target: T3, Ubiquitin-conjugating enzyme E2 N (Homo sapiens, UniProt P61088); format: functional
T3 sequence (P61088 whole entry): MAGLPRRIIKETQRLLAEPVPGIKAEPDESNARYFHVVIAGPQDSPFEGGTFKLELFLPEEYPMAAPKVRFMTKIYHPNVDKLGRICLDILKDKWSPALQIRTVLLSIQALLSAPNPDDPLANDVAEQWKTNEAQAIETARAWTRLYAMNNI

[19] = molecular target: T4, Small ubiquitin-related modifier 1 (Homo sapiens, UniProt P63165); assay: SUMO1 protein-protein binding blockers, potency – biochemical, FRET, dose response (AID 624383); format: functional; conditions: read-out: IC50_Mean
T4 sequence (P63165 whole entry): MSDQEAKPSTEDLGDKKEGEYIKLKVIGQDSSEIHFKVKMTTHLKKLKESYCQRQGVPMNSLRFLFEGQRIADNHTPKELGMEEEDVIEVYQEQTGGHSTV

[20] = molecular target: T5, Apoptotic protease-activating factor 1 (Homo sapiens, UniProt O14727); assay: SAR analysis of small molecule inhibitors of Apaf-1 in a Fluorescent assay.; format: functional; conditions: read-out: IC50_Mean
T5 sequence (O14727 whole entry): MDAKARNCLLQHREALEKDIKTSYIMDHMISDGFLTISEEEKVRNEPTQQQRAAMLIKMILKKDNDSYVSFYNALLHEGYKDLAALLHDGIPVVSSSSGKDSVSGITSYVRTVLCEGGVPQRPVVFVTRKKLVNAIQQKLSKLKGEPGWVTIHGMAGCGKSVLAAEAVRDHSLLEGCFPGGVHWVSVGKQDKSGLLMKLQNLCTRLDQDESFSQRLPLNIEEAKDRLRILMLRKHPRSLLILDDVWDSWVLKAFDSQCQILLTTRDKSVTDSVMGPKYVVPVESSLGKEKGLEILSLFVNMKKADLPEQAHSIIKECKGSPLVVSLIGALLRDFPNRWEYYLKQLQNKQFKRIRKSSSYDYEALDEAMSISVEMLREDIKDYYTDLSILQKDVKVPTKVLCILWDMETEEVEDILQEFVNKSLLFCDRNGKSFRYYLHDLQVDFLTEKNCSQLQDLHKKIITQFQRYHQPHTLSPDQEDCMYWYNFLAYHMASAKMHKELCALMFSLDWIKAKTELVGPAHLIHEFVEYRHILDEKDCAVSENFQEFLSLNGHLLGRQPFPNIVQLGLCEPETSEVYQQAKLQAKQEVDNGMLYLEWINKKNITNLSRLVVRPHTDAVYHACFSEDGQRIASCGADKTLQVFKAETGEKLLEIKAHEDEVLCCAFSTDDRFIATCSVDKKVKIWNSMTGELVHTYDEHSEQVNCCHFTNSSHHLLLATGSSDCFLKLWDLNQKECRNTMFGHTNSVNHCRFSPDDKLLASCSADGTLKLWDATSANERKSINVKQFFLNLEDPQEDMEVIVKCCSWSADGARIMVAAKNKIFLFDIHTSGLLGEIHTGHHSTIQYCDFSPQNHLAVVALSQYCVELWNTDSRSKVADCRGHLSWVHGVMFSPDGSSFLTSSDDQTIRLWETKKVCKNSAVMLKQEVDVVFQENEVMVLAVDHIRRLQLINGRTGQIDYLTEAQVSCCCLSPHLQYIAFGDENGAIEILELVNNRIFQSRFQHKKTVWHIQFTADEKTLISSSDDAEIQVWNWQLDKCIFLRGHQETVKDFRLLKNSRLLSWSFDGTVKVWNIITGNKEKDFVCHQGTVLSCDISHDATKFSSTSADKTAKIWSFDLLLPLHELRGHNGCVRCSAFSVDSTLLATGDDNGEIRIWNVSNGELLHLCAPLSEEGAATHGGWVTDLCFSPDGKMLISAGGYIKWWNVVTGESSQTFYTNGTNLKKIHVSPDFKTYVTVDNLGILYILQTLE

[21] = molecular target: T6, Bcl-2-related protein A1 (Mus musculus, UniProt Q07440); format: functional;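 note: confirmatory dose–response counterscreen on Bfl-1, used to check hits from a UBC13 polyubiquitin inhibitor campaign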
T6 sequence (Q07440 whole entry): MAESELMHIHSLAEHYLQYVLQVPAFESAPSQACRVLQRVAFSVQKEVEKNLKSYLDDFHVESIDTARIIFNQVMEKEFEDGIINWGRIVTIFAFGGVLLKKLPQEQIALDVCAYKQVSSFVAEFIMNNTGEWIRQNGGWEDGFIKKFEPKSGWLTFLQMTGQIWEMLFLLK

[22] = molecular target: T4, Small ubiquitin-related modifier 1; assay: SUMO1 protein interaction blockers, potency – biochemical, fluorescence polarization, uHTS hits, dose response (AID 624382); format: functional; conditions: read-out: IC50_Mean
[23] = molecular target: T3, Ubiquitin-conjugating enzyme E2 N; format: functional; remark: listed apart in the source
[24] = cells; format: functional, cell-based; conditions: HEK-CNG
[25] = molecular target: T7, Galanin receptor type 3 (Homo sapiens, UniProt O60755); assay: Fluorescence-based cell-based primary high throughput dose response assay to identify antagonists of the Galanin Receptor 3 (GalR3).; format: functional
T7 sequence (O60755 whole entry): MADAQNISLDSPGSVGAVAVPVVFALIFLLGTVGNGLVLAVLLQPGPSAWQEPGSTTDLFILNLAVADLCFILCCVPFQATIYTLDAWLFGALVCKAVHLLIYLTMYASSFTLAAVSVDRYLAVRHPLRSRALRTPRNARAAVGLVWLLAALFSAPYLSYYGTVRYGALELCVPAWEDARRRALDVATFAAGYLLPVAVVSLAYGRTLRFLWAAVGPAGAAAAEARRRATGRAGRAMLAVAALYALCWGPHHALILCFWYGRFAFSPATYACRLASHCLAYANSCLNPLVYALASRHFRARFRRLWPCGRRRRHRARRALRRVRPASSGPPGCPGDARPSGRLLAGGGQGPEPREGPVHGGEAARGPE

[26] = molecular target: T8, Fatty acid synthase (Homo sapiens, UniProt P49327); assay: inhibition of human FAS-TE enzyme activity – biochemical, kinetic fluorescence intensity, dose response (AID 624326); format: functional;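 note: rate of fluorescence rise from hydrolysis of a fluorogenic O-methyl fluorescein ester substrate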
T8 sequence (P49327 whole entry): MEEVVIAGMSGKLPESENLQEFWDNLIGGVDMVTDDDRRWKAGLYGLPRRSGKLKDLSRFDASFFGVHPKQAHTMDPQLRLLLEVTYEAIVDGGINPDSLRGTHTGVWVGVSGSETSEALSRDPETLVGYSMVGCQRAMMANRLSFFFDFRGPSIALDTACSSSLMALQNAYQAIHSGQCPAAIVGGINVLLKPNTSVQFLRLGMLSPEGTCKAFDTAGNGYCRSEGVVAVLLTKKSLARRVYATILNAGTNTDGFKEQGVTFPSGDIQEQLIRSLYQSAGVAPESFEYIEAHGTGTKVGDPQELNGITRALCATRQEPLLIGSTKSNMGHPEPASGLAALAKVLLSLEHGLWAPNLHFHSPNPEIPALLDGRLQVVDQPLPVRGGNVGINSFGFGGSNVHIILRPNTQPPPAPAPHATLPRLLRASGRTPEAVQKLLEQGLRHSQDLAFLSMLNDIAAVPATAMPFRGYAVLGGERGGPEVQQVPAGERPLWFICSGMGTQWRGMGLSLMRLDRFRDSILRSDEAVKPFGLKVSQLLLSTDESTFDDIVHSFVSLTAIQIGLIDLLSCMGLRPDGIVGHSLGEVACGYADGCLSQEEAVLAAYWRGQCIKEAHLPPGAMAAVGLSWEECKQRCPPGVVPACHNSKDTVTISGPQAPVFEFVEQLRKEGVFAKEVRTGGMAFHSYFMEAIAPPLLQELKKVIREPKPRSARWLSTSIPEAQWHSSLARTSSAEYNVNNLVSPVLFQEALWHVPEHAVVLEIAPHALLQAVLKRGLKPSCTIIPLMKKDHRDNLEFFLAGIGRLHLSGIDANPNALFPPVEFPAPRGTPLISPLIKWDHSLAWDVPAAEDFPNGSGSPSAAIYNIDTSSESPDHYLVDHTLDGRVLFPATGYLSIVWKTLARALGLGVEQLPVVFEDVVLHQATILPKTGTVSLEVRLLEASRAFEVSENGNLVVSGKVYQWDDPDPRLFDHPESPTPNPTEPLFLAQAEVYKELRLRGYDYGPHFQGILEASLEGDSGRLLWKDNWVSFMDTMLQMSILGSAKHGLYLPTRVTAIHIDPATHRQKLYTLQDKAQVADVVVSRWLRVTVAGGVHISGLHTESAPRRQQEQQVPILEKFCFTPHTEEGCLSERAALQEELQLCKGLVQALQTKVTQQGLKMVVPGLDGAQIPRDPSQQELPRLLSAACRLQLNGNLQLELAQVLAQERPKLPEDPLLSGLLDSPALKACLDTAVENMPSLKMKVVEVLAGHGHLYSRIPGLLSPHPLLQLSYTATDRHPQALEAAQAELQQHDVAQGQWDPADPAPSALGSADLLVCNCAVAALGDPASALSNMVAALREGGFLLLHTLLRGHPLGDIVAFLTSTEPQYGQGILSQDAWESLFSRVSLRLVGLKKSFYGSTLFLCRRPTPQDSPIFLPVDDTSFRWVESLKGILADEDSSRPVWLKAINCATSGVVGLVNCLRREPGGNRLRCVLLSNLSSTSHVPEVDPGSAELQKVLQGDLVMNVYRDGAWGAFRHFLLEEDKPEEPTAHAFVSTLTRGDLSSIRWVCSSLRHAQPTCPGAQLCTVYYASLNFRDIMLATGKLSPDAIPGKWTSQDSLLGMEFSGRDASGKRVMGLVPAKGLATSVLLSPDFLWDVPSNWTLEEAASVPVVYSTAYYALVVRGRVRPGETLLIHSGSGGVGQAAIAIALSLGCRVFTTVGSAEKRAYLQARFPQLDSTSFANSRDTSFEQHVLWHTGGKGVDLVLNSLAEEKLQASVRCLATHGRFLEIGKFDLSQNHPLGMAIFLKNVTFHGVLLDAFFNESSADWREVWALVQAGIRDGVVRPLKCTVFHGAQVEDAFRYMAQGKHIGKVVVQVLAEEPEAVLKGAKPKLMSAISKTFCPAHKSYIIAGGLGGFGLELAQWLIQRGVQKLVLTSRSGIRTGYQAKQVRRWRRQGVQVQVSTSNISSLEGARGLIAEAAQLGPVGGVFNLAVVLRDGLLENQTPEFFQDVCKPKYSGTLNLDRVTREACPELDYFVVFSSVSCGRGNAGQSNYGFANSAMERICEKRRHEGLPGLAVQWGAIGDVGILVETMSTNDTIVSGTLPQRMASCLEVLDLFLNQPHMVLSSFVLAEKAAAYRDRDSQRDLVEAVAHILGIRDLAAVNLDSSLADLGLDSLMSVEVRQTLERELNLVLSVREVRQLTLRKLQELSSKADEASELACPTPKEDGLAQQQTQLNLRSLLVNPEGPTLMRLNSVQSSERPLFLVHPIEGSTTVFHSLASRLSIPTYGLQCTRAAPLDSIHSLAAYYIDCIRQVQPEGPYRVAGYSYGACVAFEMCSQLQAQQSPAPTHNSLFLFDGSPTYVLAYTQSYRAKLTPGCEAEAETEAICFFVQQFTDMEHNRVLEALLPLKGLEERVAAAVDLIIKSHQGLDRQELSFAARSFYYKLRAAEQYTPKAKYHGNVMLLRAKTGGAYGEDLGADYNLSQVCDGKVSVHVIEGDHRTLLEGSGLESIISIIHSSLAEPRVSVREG

[27] = molecular target: T8, Fatty acid synthase; assay: inhibition of human FAS-TE enzyme activity – biochemical, endpoint fluorescence intensity, uHTS hits, dose response (AID 624327); format: functional;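 note: fluorescence from hydrolysis of an O-methyl fluorescein acyl ester substrate by the enzyme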
[28] = molecular target: Adenosylmethionine-8-amino-7-oxononanoate aminotransferase (Mycobacterium tuberculosis, UniProt P9WQ81); assay: Mycobacterium tuberculosis BioA enzyme inhibitor Measured in Biochemical System Using Plate Reader - 2163-02_Inhibitor_Dose_CherryPick_Activity.; format: functional, Mycobacterium tuberculosis UT205
[29] = NIH-3T3 fibroblast cytotoxicity, dose response, cytotoxicity control, cell-based, fluorescence, Alamar Blue, secondary assay (AID 2327); format: functional;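 note: NIH-3T3 mouse fibroblasts cultured with fluconazole at 8 µg/mL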
[30] = molecular target: ATP-dependent molecular chaperone HSP82 (Candida albicans (strain WO-1) (Yeast), UniProt C4YTQ8); assay: steroid-induced GRE reporter decrease in yeast – S. cerevisiae, luminescence, Hsp90 inhibitor project, dose response (AID 2400); format: functional, cell-based;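 note: beta-galactosidase luminescence from glucocorticoid response element reporter as proxy for Hsp90 function; inhibitor potency where signal loss means Hsp90 inhibition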
Chain of ATP-dependent molecular chaperone HSP82 (C4YTQ8 whole entry): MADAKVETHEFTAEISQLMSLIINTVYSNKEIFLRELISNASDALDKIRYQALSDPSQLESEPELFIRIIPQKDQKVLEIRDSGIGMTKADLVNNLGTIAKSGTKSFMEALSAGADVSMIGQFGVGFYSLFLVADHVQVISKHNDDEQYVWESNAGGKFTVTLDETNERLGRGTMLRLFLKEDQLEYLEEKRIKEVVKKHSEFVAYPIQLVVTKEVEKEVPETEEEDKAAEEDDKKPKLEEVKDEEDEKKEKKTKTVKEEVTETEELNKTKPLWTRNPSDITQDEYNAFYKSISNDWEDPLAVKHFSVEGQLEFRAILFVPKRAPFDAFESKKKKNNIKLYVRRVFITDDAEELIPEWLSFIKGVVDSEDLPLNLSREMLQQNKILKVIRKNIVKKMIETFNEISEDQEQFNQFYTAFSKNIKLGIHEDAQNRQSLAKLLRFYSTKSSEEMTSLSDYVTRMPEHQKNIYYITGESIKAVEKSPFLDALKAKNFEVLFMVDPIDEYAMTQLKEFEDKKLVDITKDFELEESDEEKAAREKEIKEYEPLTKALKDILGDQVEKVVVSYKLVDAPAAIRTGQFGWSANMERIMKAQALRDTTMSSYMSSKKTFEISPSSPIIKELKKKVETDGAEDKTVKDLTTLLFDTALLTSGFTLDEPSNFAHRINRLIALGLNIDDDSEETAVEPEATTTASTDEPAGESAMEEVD

[31] = fluconazole-exposed Candida albicans growth modulators – fluorescence, retest, confirmation (AID 2467); format: functional, cell-based
[32] = molecular target: Serine/threonine-protein phosphatase (Candida dubliniensis (strain CD36 / CBS 7987 / NCPF 3949 / NRRLY-17841) (Yeast), UniProt B9W6M3); assay: blockers of CaCl2-induced CDRE-lacZ signaling – S. cerevisiae, luminescence, secondary, dose response (AID 2388); format: functional, cell-based;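 note: yeast reporter cells carrying a calcineurin-responsive lacZ construct stimulated with calcium chloride; luminescent beta-galactosidase reporter signal in whole cells rather than isolated phosphatase activity; potency for inhibition where a drop in reporter signal means calcineurin blockade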
[33] = Luminescence Cell-Based Dose Retest to Confirm Inhibitors of Cancer Stem Cells. [Related pubchem assays (depositor defined):AID2717, AID2721]; format: functional; conditions: Homo sapiens

T1 sequence (P10145 whole entry): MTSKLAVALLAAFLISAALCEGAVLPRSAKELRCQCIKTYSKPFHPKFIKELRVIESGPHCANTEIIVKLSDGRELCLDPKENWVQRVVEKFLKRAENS

CCN1CCN(Cc2ccc(NC(=O)c3ccc(C)c(NC(=O)N4CCNC4=O)c3)cc2C(F)(F)F)CC1
IC50 [1]: > 79 µM (inactive)
IC50 [2]: 56.5 µM (inactive)

Cc1cc(C(=O)c2cccs2)c(N)s1
IC50 [3]: 51.8 µM (active)
IC50 [4]: 20.5 µM (active)
IC50 [5]: 32.7 µM (active)
IC50 [6]: 28.2 µM (active)

C[C@H]1c2cccc(O)c2C(=O)C2=C(O)[C@]3(O)C(O)=C(C(N)=O)C(=O)[C@@H](N(C)C)C3[C@@H](O)C21 (stereo partly specified)
EC50 [7]: < 0.06 µM (active)
EC50 [8]: 0.109 µM (active)
AC50 [9]: 2.34 µM (active)
AC50 [10]: 39.8 µM (active)
EC50 [11]: 45.3 µM (active)

Cc1ccccc1Nc1nc(N)nc(CSc2ccc(F)cc2)n1
EC50 [12]: 0.351 µM (active)
EC50 [13]: 0.229 µM (active)
EC50 [14]: < 0.1 µM (active)
EC50 [15]: 0.343 µM (active)
IC50 [16]: > 67.5 µM (inactive)
IC50 [17]: > 67.5 µM (inactive)

CCN(CC)CCOC(=O)c1ccc(N/C=C(/C#N)c2nc(-c3ccc(OC)cc3)cs2)cc1
IC50 [18]: 4.88 µM (active)
IC50 [19]: 5.97 µM (active)
IC50 [20]: 9.94 µM (active)
IC50 [21]: 2.99 µM (active)
IC50 [22]: > 66.6 µM (inactive)
IC50 [23]: 4.3 µM (active)

CC(=O)Nc1ccc(S(=O)(=O)N[C@@H](C)C(=O)OCC(=O)c2ccc(Br)s2)cc1
IC50 [16]: > 67.5 µM (inactive)
IC50 [17]: > 67.5 µM (inactive)

COc1cc([N+](=O)[O-])cc(/C=N/NC(=O)c2cncc(Br)c2)c1O
EC50 [7]: 1.85 µM (active)
EC50 [24]: > 29.9 µM (inactive)
IC50 [25]: > 9.97 µM (active)
EC50 [8]: 1.02 µM (active)
IC50 [26]: 10.2 µM (active)
IC50 [27]: 20 µM (active)
IC50 [4]: 49.5 µM (active)
IC50 [5]: 12.5 µM (active)
IC50 [6]: 39.1 µM (active)

COc1ccc(N2C(=O)CC3(CC(c4ccc(F)cc4)=NO3)C2=O)cc1 (stereo unspecified)
IC50 [20]: 58.3 µM (active)

O=C(N[C@@H]1CC[C@H](CCn2cc(-c3cccnc3)nn2)O[C@@H]1CO)c1ccccc1F
AC50 [28]: 6.17 µM (active)

CC/C(=N/NC(=O)c1ccccc1O)c1c(C)nn(-c2ccccc2)c1O
EC50 [29]: 39 µM (active)
EC50 [30]: > 150 µM (inactive)
EC50 [31]: 0.114 µM (active)
EC50 [32]: > 180 µM (inactive)
AC50 [33]: 3.29 µM (active)
